Test results published in patent publication US9758459B2, “Allosteric modulators of factor XIa as anticoagulant agents” (VIRGINIA COMMONWEALTH UNIVERSITY, priority 2012, dated 2017).
Where “and” joins values, the source holds several entries; their conditions need not be identical. Equal values may be shown once. Read-outs that look alike come from different tables or passages of the source.

Tests used:
human FXIa [1] = biological target: T1, human FXIa (Homo sapiens, UniProt P03951); assay: Inhibition of FXIa activation of FIX, Western blotting; assay type: biochemical
T1 construct: purchased Haematologic Technologies (Essex Junction, Vt.); host or cells: human plasma
T1 sequence (P03951 19-387 limits assumed): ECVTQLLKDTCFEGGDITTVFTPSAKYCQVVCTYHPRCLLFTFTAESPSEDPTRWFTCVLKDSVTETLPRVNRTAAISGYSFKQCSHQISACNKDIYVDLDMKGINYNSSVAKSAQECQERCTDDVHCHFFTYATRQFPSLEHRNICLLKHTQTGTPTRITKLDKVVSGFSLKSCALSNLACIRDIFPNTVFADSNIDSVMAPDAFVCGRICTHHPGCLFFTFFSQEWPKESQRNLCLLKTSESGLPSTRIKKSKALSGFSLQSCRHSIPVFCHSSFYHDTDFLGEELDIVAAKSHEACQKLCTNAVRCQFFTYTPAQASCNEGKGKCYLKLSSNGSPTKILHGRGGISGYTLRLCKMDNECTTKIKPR
T1 sequence (P03951 388-625 limits assumed): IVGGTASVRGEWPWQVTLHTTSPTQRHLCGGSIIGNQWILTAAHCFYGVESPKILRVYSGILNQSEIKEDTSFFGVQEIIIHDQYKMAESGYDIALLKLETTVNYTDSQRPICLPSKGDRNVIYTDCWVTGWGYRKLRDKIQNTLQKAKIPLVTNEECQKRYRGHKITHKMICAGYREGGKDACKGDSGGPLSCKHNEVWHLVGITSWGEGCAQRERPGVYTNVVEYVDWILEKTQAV
Description: (§1) Plasma FIX (500 nM) was incubated with human FXIa (3 nM) in 50 mM Hepes buffer, pH 7.4, containing 125 mM NaCl, 5 mM CaCl2, and 0.1 mg/mL bovine serum albumin at 24° C. […] The primary antibody was goat anti-human FIX polyclonal IgG (Enzyme Research Laboratories, South Bend, Tenn.), and the secondary antibody was horseradish peroxidase-conjugated anti-goat IgG. Detection was by chemiluminescence. […] The inhibition profile was determined over a range of inhibitor concentrations to determine the IC50 of the enzyme-inhibitor complex. The KM of the substrate for its enzyme was used to identify the concentration of the substrate to be used for inhibition studies. […] Active site concentrations for preparations of FXIa were determined by titrations with human antithrombin in an S-2366 cleavage assay. The reaction was monitored using a SpectraMax 340 microtiter plate reader (Molecular Devices Corp., Sunnyvale, Calif.) with a reaction volume of 100 μL and path length of 3 mm. Each assay was performed in triplicate. The concentration of S-2366 was measured using an absorption coefficient of 8,266 M-1cm-1 at λ342 nm, while the free p-nitroaniline concentration was calculated using an absorption coefficient of 9,933 M cm^−1 at λ405 nm. The data was fitted using the standard Michaelis-Menten equation to determine the KM and VMAX. Results

human FXIa [2] = biological target: T1, human FXIa; assay: Inhibition of FXIa by SPGG in the presence of UFH (competition); assay type: biochemical
Description: Solvent A consisted of 25 mM n-hexylamine in water containing 0.1% (v/v) formic acid, while solvent B consisted of 25 mM n-hexylamine in acetonitrile-water mixture (3:1 v/v) containing 0.1% (v/v) formic acid. […] The sample was first monitored for absorbance in the range of 190-400 nm and then directly introduced into the mass spectrometer. ESI-MS detection was performed in positive ion mode for which the capillary voltage was 4 kV, cone voltage was 20 V, desolvation temperature was 350° C. and nitrogen gas flow was maintained at 650 L/hr. Mass scans were collected in the range of 1000-2048 amu within 0.25 s and several of these added to enhanced signal-to-noise ratio. Direct Inhibition of Factor XIa. […] After 10 min incubation, 5 μL factor XIa substrate (345 μM) was rapidly added and the residual FXIa activity was measured from the initial rate of increase in absorbance at 405 nm. […] Relative residual FXIa activity at each concentration of the inhibitor was calculated from the ratio of FXIa activity in the presence and absence of the inhibitor. Logistic equation 1 was used to fit the dose-dependence of residual protease activity to obtain the potency (IC50) and efficacy (ΔY) of inhibition.
A more quantitative test of competitive binding is the Dixon-Webb relationship, which predicts the effect of an ideal competitor on a measured parameter, e.g. KD or IC50.

human plasma = assay: Prothrombin time (PT) plasma clotting assay; assay type: biochemical
Description: Plasma clotting assays, prothrombin and activated partial thromboplastin time (PT and APTT, respectively), are routinely used to assess the anticoagulation potential of new enzyme inhibitors in an in vitro setting. Whereas PT measures the effect of an inhibitor on the extrinsic pathway of coagulation, APTT measures the effect on the intrinsic pathway.
Prothrombin Time (PT) and Activated Partial Thromboplastin Time (APTT) were assessed as described in Example 1.

human whole blood = assay: Thromboelastography of clot formation in whole blood; set-up: G: unit not given here
Description: To assess the anticoagulation properties of SPGG in human whole blood, thromboelastography was employed. This technique is an ex vivo protocol often utilized to evaluate the anticoagulant activity of low molecular weight heparins (LMWHs) in whole blood.^13-16Thromboelastography monitors the thrombodynamic properties of blood as it is induced to clot under a low shear environment resembling sluggish venous flow. These thrombodynamic properties are expected to dramatically change in presence of anticoagulant in blood. The blood clot formation is recorded as a force transduced on a pin at the center of a blood-containing cup. The kinetics of clot formation and growth as well as the strength and stability of the formed clot are measured through parameters such as maximum amplitude (MA) of clot formation; shear elastic modulus strength (G) of clot; the reaction time (R) for the start of clotting; and the angle α, which is a measure of fibrin build-up and cross-linking (FIG. 8).

FXIa wild type (FXIa-WT) = biological target: T2, FXIa wild type (FXIa-WT) (Homo sapiens, UniProt P03951); assay: Michaelis-Menten kinetics of S-2366 hydrolysis by full-length factor XIa; assay type: biochemical
T2 construct: made in house; host or cells: HEK-293
T2 sequence (P03951 19-387 limits assumed): as the sequence (P03951 19-387 limits assumed) above
T2 sequence (P03951 388-625 limits assumed): as the sequence (P03951 388-625 limits assumed) above
Description: as §1

factor IXa = biological target: T3, factor IXa (Homo sapiens, UniProt P00740); assay: Factor IXa chromogenic substrate hydrolysis assay; assay type: biochemical
T3 construct: purchased Haematologic Technologies (Essex Junction, Vt.); host or cells: human plasma
T3 sequence (P00740 227-461 limits assumed): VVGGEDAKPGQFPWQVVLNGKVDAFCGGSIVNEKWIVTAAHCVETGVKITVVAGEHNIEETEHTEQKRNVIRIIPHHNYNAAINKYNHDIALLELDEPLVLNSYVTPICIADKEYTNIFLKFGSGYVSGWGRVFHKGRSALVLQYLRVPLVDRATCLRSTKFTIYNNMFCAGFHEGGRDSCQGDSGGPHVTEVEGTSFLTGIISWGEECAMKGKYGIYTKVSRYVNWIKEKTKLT
T3 sequence (P00740 47-191 partner limits assumed): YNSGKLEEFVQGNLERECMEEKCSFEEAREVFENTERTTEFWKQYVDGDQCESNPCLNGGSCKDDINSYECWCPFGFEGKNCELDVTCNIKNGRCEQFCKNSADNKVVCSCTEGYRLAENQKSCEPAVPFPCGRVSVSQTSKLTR

C57Bl/6 mice = assay: FeCl3 carotid artery thrombosis model; assay type: in vivo
Description: Exposure of the carotid artery of C57Bl/6 mice to FeCl3 (either 3.5% or 5.0%) results in formation of an occlusive platelet-rich thrombus within 15 minute.

formation of FIXαβ (human FXIa [1]; 3 μM SPGG, FIX 0.5 μM, after 120 min of incubation): not detectable
inhibition at 3 µM (human FXIa [1]; read-out: efficacy of inhibition of FIX activation by FXIa): ~100%
HS (human FXIa [2]; UFH 0 μM): 1.3 ± 0.1
ΔY (human FXIa [2]; UFH 0 μM): 97.1 ± 3.2
IC50 (human FXIa [2]; UFH 0 μM, Dixon-Webb equation, read-out: IC50, predicted (converted)): 0.689 µM
HS (human FXIa [2]; UFH 3.33 μM): 1.7 ± 0.2
ΔY (human FXIa [2]; UFH 3.33 μM): 92.7 ± 6.4
IC50 (human FXIa [2]; UFH 3.33 μM, Dixon-Webb equation, read-out: IC50, predicted (converted)): 2.24 µM
IC50 (human FXIa [2]; UFH 3.33 μM, pH 7.4, 37° C., read-out: IC50 (converted)): 4.02 µM
HS (human FXIa [2]; UFH 33.3 μM): 4.0 ± 0.9
ΔY (human FXIa [2]; UFH 33.3 μM): 58.2 ± 6.6
IC50 (human FXIa [2]; UFH 33.3 μM, pH 7.4, 37° C., read-out: IC50 (converted)): 18 µM and 17.8 µM
IC50 (human FXIa [2]; UFH […], Dixon-Webb equation, read-out: IC50, predicted (converted)): 0.747 µM
VMAX (FXIa wild type (FXIa-WT); [SPGG] 0.005 μg/mL): 93.7 ± 3.2 mAU/min
VMAX (FXIa wild type (FXIa-WT); [SPGG] 0.5 μg/mL): 74.6 ± 2.6 mAU/min
VMAX (FXIa wild type (FXIa-WT); [SPGG] 5.0 μg/mL): 32.3 ± 2.1 mAU/min
VMAX (FXIa wild type (FXIa-WT); [SPGG] 50.0 μg/mL): 17.2 mAU/min and 17.2 ± 1.2 mAU/min
VMAX (FXIa wild type (FXIa-WT); [SPGG] […]): 56.9 ± 1.5 mAU/min
HS (factor IXa): 2.2 ± 0.6
IC50 (factor IXa): 655 µM
ΔY (factor IXa): 100.6 ± 5.8
selectivity over factor IXa (factor IXa; FXIa vs factor IXa): 950 fold
Compound: O=C(OC[C@H]1O[C@@H](OC(=O)c2cc(OS(=O)(=O)O)c(O)c(OS(=O)(=O)O)c2)[C@H](OC(=O)c2cc(OS(=O)(=O)O)c(O)c(OS(=O)(=O)O)c2)[C@@H](OC(=O)c2cc(OS(=O)(=O)O)c(O)c(OS(=O)(=O)O)c2)[C@@H]1OC(=O)c1cc(OS(=O)(=O)O)c(O)c(OS(=O)(=O)O)c1)c1cc(OS(=O)(=O)O)c(O)c(OS(=O)(=O)O)c1 [SPGG, Sulfated Pentagalloylglucoside]
concentration for 2-fold increase in PT (human plasma): 298 µg/mL
reduction of G (human whole blood; SPGG 0-280 μg/mL): ~8 fold
reduction of MA (human whole blood; SPGG 0-280 μg/mL): ~4 fold
G (human whole blood; SPGG 20 μg/mL): 8.2 × 10^3
MA (human whole blood; SPGG 20 μg/mL): 62 mm
R (human whole blood; SPGG 20 μg/mL): 6.6 min
α (human whole blood; SPGG 20 μg/mL): 51.4 degs
G (human whole blood; SPGG 135 μg/mL): 5.0 × 10^3
MA (human whole blood; SPGG 135 μg/mL): 49.8 mm
R (human whole blood; SPGG 135 μg/mL): 22.8 min
α (human whole blood; SPGG 135 μg/mL): 30.6 degs
G (human whole blood; SPGG 190 μg/mL): 3.8 × 10^3
MA (human whole blood; SPGG 190 μg/mL): 43.5 mm
R (human whole blood; SPGG 190 μg/mL): 37.8 min
α (human whole blood; SPGG 190 μg/mL): 9.4 degs
G (human whole blood; SPGG 280 μg/mL): 0.9 × 10^3
MA (human whole blood; SPGG 280 μg/mL): 15.1 mm
R (human whole blood; SPGG 280 μg/mL): 87.1 min
α (human whole blood; SPGG increased from 0 to 280 μg/mL): less than 9.4 °
arteries in which thrombosis was prevented (C57Bl/6 mice; 3.5% FeCl3, doses of 0.025 to 0.2 mg injected 10 min before FeCl3): ~100%
protection of vessels from occlusion (C57Bl/6 mice; 5.0% FeCl3, dose of 0.2 mg): protected all vessels from occlusion
